Where two headings read alike, the source gives them in different places.
Tested on: cancer cells on SISgel or plastic
Experiment: Activity of leads and analogs on cancer cells grown on plastic vs SISgel (cell line not stated)
Format: cell-based
Conditions: for SR: ratio IC50-p/IC50-S; for Hit: YES/NO
Method: The NCI library is no longer available in the form used here, but how it was constructed is described (http://dtp.nci.nih.gov/branches/dscb/diversity_explanation.html). The ChemBridge library is a subset (Set Code NM1024) of the full 50,000 compound library (http://www.chembridge.com/screening_libraries/diversity_libraries/). Compounds were diluted to 100 μM before use. SISgel was prepared as described previously from powdered porcine small intestine submucosa obtained from Cook Biotech (W. Lafayette, IN). It is a natural product that is used extensively in tissue engineering as a bioscaffold. J82 bladder cancer cells and other cell lines were obtained from the ATCC (Bethesda, MD). […] Efficacy in vitro was assessed by plating 30,000 cells in 50 μL of high glucose DMEM with penicillin-streptomycin and 10 % fetal calf serum on SISgel in a 96-well plate containing 50 μL of gelled SISgel per well. Cells were allowed to attach and assume the SISgel phenotype for 48 h. A matching plate without SISgel was prepared 24 h later by pipetting 3,000 cells in 100 μL of high glucose DMEM with penicillin-streptomycin and 10 % fetal calf serum into each well of 96 well plate. The cells were allowed to attach and grow for 24 h. […] The cells were exposed to drug in fresh medium for 48 h, at which time the cell number was determined using the CFDA-AM cellular esterase proliferation assay (cat. #C1354, Life Technologies). For screening the results are reported as the ratio of cell count of cells on the plastic surface to the cell count on SISgel. An initial difference of 1.5 fold identified potential hits. All potential hits were confirmed in triplicate. […] Data were analyzed using nonlinear regression to a sigmoid curve with Prism 4 (GraphPad Software, Inc., LaJolla, CA). […]

[1] = cells on SISgel, read-out: IC50-S
[2] = cells on plastic, read-out: IC50-p

IC50 [1] | IC50 [2] | Molecule | SR | Hit
666 µM | 492 µM | CCN(Cc1cccc(S(=O)(=O)[O-])c1)c1ccc(C(=C2C=CC(=[N+](CC)Cc3cccc(S(=O)(=O)[O-])c3)C=C2)c2ccccc2)cc1.[Na+] [Acid Green 3] | 0.74 | 
26 µM | 33 µM | O=S(=O)([O-])c1ccc2c(N=Nc3ccc(S(=O)(=O)[O-])c4ccccc34)c(O)c(S(=O)(=O)[O-])cc2c1.[Na+].[Na+].[Na+] [Amaranthe] | 1.3 | 
57 µM | 77 µM | O=S(=O)([O-])c1cc(Nc2nc(Cl)nc(Cl)n2)c2c(O)c(N=Nc3ccccc3)c(S(=O)(=O)[O-])cc2c1.[Na+].[Na+] [Procion Red Mx - 5B] | 1.4 | 
33 µM | 94 µM | O=S(=O)([O-])c1cc(O)c2c(N=Nc3c(S(=O)(=O)[O-])cc4cc(S(=O)(=O)[O-])cc(O)c4c3O)cc(S(=O)(=O)[O-])cc2c1.[Na+].[Na+].[Na+].[Na+] [Beryllon II] | 3 | YES
31 µM | 67 µM | O=S(=O)([O-])c1ccc(N=Nc2c(O)ccc3cc(S(=O)(=O)[O-])ccc23)cc1.[Na+].[Na+] [Sunset Yellow FCF] | 2.2 | YES
36 µM | 159 µM | Cc1cc(-c2ccc(/N=N/c3c(S(=O)(=O)O)cc4cc(S(=O)(=O)O)cc(N)c4c3O)c(C)c2)ccc1/N=N/c1c(S(=O)(=O)O)cc2cc(S(=O)(=O)O)cc(N)c2c1O [Trypan Blue] | 4.5 | YES
194 µM | 318 µM | CCN(CC)c1ccc(C(=C2C=CC(=[N+](CC)CC)C=C2)c2ccc(S(=O)(=O)[O-])cc2S(=O)(=O)[O-])cc1.[Na+] [Acid Blue 1] | 1.6 | 
51 µM | 85 µM | CC(=O)Nc1ccc(N=Nc2c(N)ccc3cc(S(=O)(=O)O)cc(O)c23)c(S(=O)(=O)O)c1.N.N [Acid Red 37] | 1.7 | YES
47 µM | 82 µM | O=S(=O)([O-])c1cc(S(=O)(=O)[O-])c2c(N=Nc3ccc(N=Nc4ccccc4)cc3)c(O)ccc2c1.[Na+].[Na+] [Brilliant Crocein Moo] | 1.8 | YES
15 µM | 38 µM | Cc1ccc(N=Nc2c(O)c(S(=O)(=O)[O-])cc3cc(S(=O)(=O)[O-])ccc23)c(C)c1.[Na+].[Na+] [Ponceau Xylidine] | 2.6 | YES
19 µM | 38 µM | O=S(=O)([O-])c1ccc(N=Nc2c(S(=O)(=O)[O-])cc3cc(S(=O)(=O)[O-])cc(O)c3c2O)cc1.[Na+].[Na+].[Na+] [Sulfanilic Acid Azochromotrop] | 2.0 | YES
64 µM | 135 µM | O=S(=O)([O-])c1ccc2c(N=Nc3c(O)cc(S(=O)(=O)[O-])c4ccccc34)c(O)c(S(=O)(=O)[O-])cc2c1.[Na+].[Na+].[Na+] [HydroxyNapthol Blue] | 2.1 | YES
54.1 µM | 208 µM | Cc1cc(C)c(S(=O)(=O)[O-])cc1N=Nc1cc(S(=O)(=O)[O-])c2ccccc2c1O.[Na+].[Na+] [Ponceau SX] | 3.8 | YES
86 µM | 64 µM | CCN(Cc1cccc(S(=O)(=O)[O-])c1)c1ccc(C(=C2C=CC(=[N+](C)C)C=C2)c2ccc(N(CC)Cc3cccc(S(=O)(=O)O)c3)cc2)cc1.[Na] [Acid Violet 49] | 0.75 | 
34 µM | 71 µM | CC(=O)Nc1ccc(N=Nc2c(S(=O)(=O)[O-])cc3cc(S(=O)(=O)[O-])cc(O)c3c2O)cc1.[Na+].[Na+] [Chromotrope 6B] | 2.1 | YES
40 µM | 71 µM | O=[N+]([O-])c1ccc(N=Nc2c(S(=O)(=O)[O-])cc3cc(S(=O)(=O)[O-])cc(O)c3c2O)cc1.[Na+].[Na+] [Chromotrope 2B] | 1.8 | YES
122 µM | 212 µM | Nc1c(N=Nc2cccc([N+](=O)[O-])c2)c(S(=O)(=O)[O-])cc2cc(S(=O)(=O)[O-])c(N=Nc3ccccc3)c(O)c12.[Na+].[Na+] [Acid Blue 29] | 1.7 | 
107 µM | 124 µM | O=S(=O)([O-])c1cc(S(=O)(=O)[O-])c2c(N=Nc3ccc(S(=O)(=O)[O-])c4ccccc34)c(O)c(S(=O)(=O)[O-])cc2c1.[Na+].[Na+].[Na+].[Na+] [Ponceau 6R] | 1.2 | 
621 µM | 414 µM | CCN(Cc1cccc(S(=O)(=O)[O-])c1)c1ccc(C(=C2C=CC(=[N+](CC)Cc3cccc(S(=O)(=O)[O-])c3)C=C2)c2ccccc2Cl)cc1.[Na+] [Alizarin Green] | 0.67 | 
22 µM | 26 µM | O=[N+]([O-])c1ccc(N=Nc2c(S(=O)(=O)[O-])cc3cc(S(=O)(=O)[O-])cc(O)c3c2O)cc1.[Na+].[Na+] [Acid Red 60 Chromotrope 2B] | 1.2 | 
94 µM | 92 µM | O=S(=O)([O-])c1cc(O)c2c(O)c(N=Nc3ccccc3)c(S(=O)(=O)[O-])cc2c1.[Na+].[Na+] [Chromotrope 2R] | 0.98 | 
24 µM | 53 µM | COc1ccccc1N=Nc1c(S(=O)(=O)[O-])cc2cc(S(=O)(=O)[O-])cc(NC(C)=O)c2c1O.[Na+].[Na+] [Pontacyl Carmine 2B] | 2.2 | YES
23 µM | 46 µM | O=S(=O)(O)c1cc(Cl)cc(N=Nc2c(S(=O)(=O)O)cc3cc(S(=O)(=O)O)c(N=Nc4cc(Cl)cc(S(=O)(=O)O)c4O)c(O)c3c2O)c1O [Sulfochlorophenol S] | 2.0 | YES
315 µM | 631 µM | CCN(Cc1cccc(S(=O)(=O)[O-])c1)c1ccc(C(=C2C=CC(=[N+](CC)Cc3cccc(S(=O)(=O)[O-])c3)C=C2)c2ccc(S(=O)(=O)[O-])cc2)cc1.[Na+].[Na+] [Light Green SF Yellowish] | 2 | 
111 µM | 146 µM | Cc1cc(C)c(N=Nc2c(O)c(S(=O)(=O)[O-])cc3cc(S(=O)(=O)[O-])ccc23)cc1C.[Na+].[Na+] [Ponceau 3R] | 1.3 | 

Molecule | IC50 [1] | IC50 [2] | SR | Hit
O=S(=O)(O)c1ccc2c(N=Nc3c(O)c(S(=O)(=O)O)cc4cc(S(=O)(=O)O)ccc34)c(O)c(S(=O)(=O)O)cc2c1 [2-2-dihydroxy-1-1-azo-naphthalene-3-3-6] | 111 µM | 213 µM | 1.9 | 
O=S(=O)(O)c1cc2cc(S(=O)(=O)O)c(N=Nc3ccccc3[As](=O)(O)O)c(O)c2c(O)c1N=Nc1ccccc1[As](=O)(O)O [Arsenazo III] | 34 µM | 47 µM | 1.4 | 
nitrazine Yellow | 33 µM | 65 µM | 2.0 | YES
O=S(=O)(O)c1cc(O)c2c(N=Nc3c(S(=O)(=O)O)cc4cc(S(=O)(=O)O)cc(N=Nc5c(S(=O)(=O)O)cc6cc(S(=O)(=O)O)cc(O)c6c5O)c4c3O)cc(S(=O)(=O)O)cc2c1 [Calichrome] | 375 µM | 464 µM | 1.2 | 

— PMC4434572, “Identification of novel drugs to target dormant micrometastases” (BMC Cancer, 2015)
